# Test results published in patent US20060058286A1, “Methods of treating HIV infection” (priority 2004, published 2006).
# Assays:
# HIV-1 NL4-3 [1] = assay: Two-drug combination study with Compound 1 (combination indices); assay type: cell-based; conditions: for Combination Indices at 50% HIV Inhibition (Confidence Interval) / Combination Indices at 75% HIV Inhibition (Confidence Interval) / Combination Indices at 90% HIV Inhibition (Confidence Interval): 95% CI in parentheses; for Overall Result: overall antiviral effect of the two-drug combination with Compound 1, all ratios and effective levels
# Description: (§1) Virus and cell lines. The T-cell line, MT-2 was obtained through the AIDS Research and Reference Reagent Program, NIAID and was contributed by Dr. D. Richman. The cell line was cultured in RPMI 1640 medium supplemented with 10% fetal bovine serum, 2 mM L-glutamine and sub-cultured twice a week. The NL4-3 strain of HIV-1 was obtained from the AIDS Research and Reference Reagent Program. Both virus stocks were amplified and titered in MT-2 cells using a virus infectivity assay.
# (§2) Drug Susceptibility and Cytotoxicity Assays. For drug susceptibility assays, MT-2 cells were infected with HIV-1 NL4-3 at an MOI of 0.001, and seeded into 96-well microtiter plates (2.5×10^5 cells/ml) containing serial dilutions of test compounds. […] Each drug ratio consisted of an array of 3-fold serial dilutions, and was performed in quadruplicate. The plates were incubated at 37° C./5% CO2. The MT-2 cells infected with HIV-1 NL4-3 were incubated for 5 days. On day-five post-infection, 20 μl from each well was harvested and quantitated by a reverse transcriptase (RT) assay or an MTS assay. Cytotoxicity assays were performed using uninfected cells, exposed to the same drug combinations, and incubated for five days. Cell viability was determined by an XTT assay. The CC50 values were calculated by using the exponential form of the median effect equation as mentioned below for calculation of EC50.
# Analysis of Drug Combination Effects. For determination of CI values, drugs were diluted in a fixed ratio and multiple ratios were analyzed. The drug serial dilutions spanned a range of concentrations near the EC50 value of each compound, so that equivalent antiviral activities could be compared. Concentration-response curves were estimated for each individual drug and every combination using the median-effect equation. The equation was fit using a nonlinear regression routine (Proc Nlin) in PC SAS version 8.01 (SAS Institute Inc., SAS Version 8.01, Cary, N.C.: SAS Institute Inc., 1990).
# (§3) In this equation, Fa stands for “fraction affected,” and represents the fraction of the viral load that has been inactivated.
# To assess antiviral effects of different drug combination treatments, combination indices (CIs) were calculated according to Chou and Rideout. The combination index was computed as CI=[D]1/[Dm]1+[D]2/[Dm]2
# In this equation [Dm]1 and [Dm]2 are the concentrations of drugs that would individually produce a specific level of effect, while [D]1 and [D]2 are the concentrations of drugs in combination that would produce the same level of effect.
# Theoretically, additivity is implied if the CI is equal to one, synergy if the CI is less than one, and antagonism if the CI is greater than one. […] At best, we can construct a range that contains the likely values for the CI, given the noise in the data. In this report, these ranges are reported in parentheses next to each point estimate of the CI. […] If the range fell entirely above 1.0, we would infer antagonistic behavior. If the range were to include 1.0, we would infer additivity.
# HIV-1 NL4-3 [2] = assay: microbe, parasite or virus in culture
# Description: as §1, §2, §3
# In carrying out the combination experiments below, the EC50 for Compound 1 and each comparator compound was determined during the course of each study, and used in the subsequent data analysis.
# [3] = combination with Compound 1, EC50 ratio 1:1 (Compound 1:comparator)
# [4] = combination with Compound 1, EC50 ratio 1:2.5 (Compound 1:comparator)
# [5] = combination with Compound 1, EC50 ratio 2.5:1 (Compound 1:comparator)
# [6] = Human immunodeficiency virus 1, NL43, MT2, 120 h
SMILES,Combination Indices at 50% HIV Inhibition (Confidence Interval) (HIV-1 NL4-3 [1]; [3]),Combination Indices at 75% HIV Inhibition (Confidence Interval) (HIV-1 NL4-3 [1]; [3]),Combination Indices at 90% HIV Inhibition (Confidence Interval) (HIV-1 NL4-3 [1]; [3]),Combination Indices at 75% HIV Inhibition (Confidence Interval) (HIV-1 NL4-3 [1]; [4]),Combination Indices at 90% HIV Inhibition (Confidence Interval) (HIV-1 NL4-3 [1]; [4]),Combination Indices at 50% HIV Inhibition (Confidence Interval) (HIV-1 NL4-3 [1]; [5]),Combination Indices at 75% HIV Inhibition (Confidence Interval) (HIV-1 NL4-3 [1]; [5]),Combination Indices at 90% HIV Inhibition (Confidence Interval) (HIV-1 NL4-3 [1]; [5]),Overall Result (HIV-1 NL4-3 [1]),Overall Result (HIV-1 NL4-3 [1]; listed as lopinavir),EC50 (HIV-1 NL4-3 [2]; [6]) [nM],Combination Indices at 50% HIV Inhibition (Confidence Interval) (HIV-1 NL4-3 [1]; [4]),Overall Result (HIV-1 NL4-3 [1]; listed as saquinavir),combination effect at the 13:1 and 82.5:1 molar ratios (HIV-1 NL4-3 [1]; combination with Compound 1),combination effect at the 33:1 molar ratio (HIV-1 NL4-3 [1]; combination with Compound 1),"EC50 (HIV-1 NL4-3 [2]; MT-2 cells infected with HIV-1 NL4-3, MOI 0.001, 5 days, single drug) [nM]",Overall Result (HIV-1 NL4-3 [1]; listed as nevirapine),combination effect at the 50% effective level (HIV-1 NL4-3 [1]; combination with Compound 1),combination effect at the 75% and 90% effective levels (HIV-1 NL4-3 [1]; combination with Compound 1),Overall Result (HIV-1 NL4-3 [1]; listed as stavudine)
"Cc1cccc(C)c1OCC(=O)N[C@@H](Cc1ccccc1)[C@@H](O)C[C@H](Cc1ccccc1)NC(=O)[C@H](C(C)C)N1CCCNC1=O [Lopinavir, lopinavir]","0.16 (0.11, 0.22)","0.16 (0.08, 0.24)","0.16 (0.04, 0.28)",0.57 (0.46 0.68),"0.32 (0.22, 0.42)","1.60 (1.28, 1.92)","0.78 (0.56, 1.00)","0.38 (0.22, 0.55)",Additive-,additive to synergistic,14,,,,,,,,,
"CC(C)(C)NC(=O)[C@@H]1C[C@@H]2CCCC[C@@H]2CN1C[C@@H](O)[C@H](Cc1ccccc1)NC(=O)[C@H](CC(N)=O)NC(=O)c1ccc2ccccc2n1 [Saquinavir, saquinavir]","0.65 (0.49, 0.80)","0.85 (0.56, 1.14)","1.20 (0.55, 1.84)","0.97 (0.65, 1.29)","1.81 (0.86, 2.77)","0.47 (0.38, 0.56)","0.60 (0.44, 0.75)",,Additive-,,11,"0.55 (0.42, 0.68)",additive to synergistic,,,,,,,
COc1ncc(OC)c2c(C(=O)C(=O)N3CCN(C(=O)c4ccccc4)CC3)c[nH]c12 [Compound 3],"0.92 (0.77, 1.06)","0.90 (0.70, 1.10)","0.89 (0.58, 1.21)","0.66 (0.51, 0.80)","0.61 (0.40, 0.82)","0.41 (0.36, 0.47)","0.41 (0.33, 0.48)","0.40 (0.28, 0.52)",synergistic to additive,,1,"0.71 (0.60, 0.82)",,moderate synergy,additivity,,,,,
"C[C@H](Cn1cnc2c(N)ncnc21)OCP(=O)(O)O [Tenofovir, tenofovir]","1.30 (1.00, 1.61)","1.02 (0.69, 1.35)","0.80 (0.39, 1.21)","0.99 (0.54, 1.43)","1.06 (0.31, 1.80)","1.03 (0.65, 1.40)","0.84 (0.42, 1.27)","0.70 (0.14, 1.25)",Additive,,,"0.93 (0.63, 1.23)",,,,3,,,,
"Cc1ccnc2c1NC(=O)c1cccnc1N2C1CC1 [Nevirapine, nevirapine]","0.51 (0.39, 0.63)","0.30 (0.20, 0.40)","0.18 (0.08, 0.27)","0.40 (0.22, 0.59)","0.26 (0.07, 0.46)","0.52 (0.39, 0.64)","0.32 (0.22, 0.43)","0.21 (0.10, 0.31)",Synergistic,,85,"0.63 (0.42, 0.83)",,,,,strong synergistic effects,,,
"CC(C)c1nc(CN(C)C(=O)N[C@H](C(=O)N[C@@H](Cc2ccccc2)C[C@H](O)[C@H](Cc2ccccc2)NC(=O)OCc2cncs2)C(C)C)cs1 [Ritonavir, ritonavir]","1.35 (0.72, 1.97)","1.74 (0.61, 2.87)","2.56 (0.00, 5.18)","1.24 (0.53, 1.96)","1.39 (0.13, 2.65)","1.37 (0.95, 1.80)","1.18 (0.67, 1.68)","1.13 (0.37, 1.88)",Additive,,24,"1.23 (0.73, 1.74)",,,,,,,,
"Nc1ccn([C@@H]2CS[C@H](CO)O2)c(=O)n1 [Lamivudine, lamivudine]","0.69 (0.58, 0.81)","0.49 (0.38, 0.61)","0.37 (0.25, 0.50)","0.60 (0.51, 0.69)","0.64 (0.49, 0.80)","0.93 (0.65, 1.20)","0.78 (0.46, 1.10)","0.70 (0.24, 1.16)",,,190,"0.58 (0.52, 0.65)",,,,,,,,
"Cc1cn([C@H]2C=C[C@@H](CO)O2)c(=O)[nH]c1=O [Stavudine, stavudine]","0.63 (0.42, 0.85)","0.51 (0.29, 0.74)","0.43 (0.10, 0.75)","0.68 (0.41, 0.94)","0.36 (0.12, 0.59)","1.20 (0.88, 1.51)","0.71 (0.45, 0.96)","0.43 (0.17, 0.68)",Additive-,,55,"1.32 (0.94, 1.69)",,,,,,additivity,synergy,additive-synergistic
